According to US6673354B2, “Compositions and methods for treating papillomavirus-infected cells” (priority 1998, dated 2004):

Key:
[1] = target: T1, interaction between HPV16 E1 and E2 (Human papillomavirus type 16, UniProt P03114); test: In vitro HPV E1-E2 binding assay (co-immunoprecipitation / Western blot), HPV16 E1 and HPV16 E2
T1 construct: made in house; host or cells: Hi-Five insect cells infected with recombinant baculovirus (pVL1392); nuclear extracts
Protocol: (§1) In vitro HPV E1-E2 binding assay. 300-500 ng protein from HPV16 or HPV11 EE-E1 expressing recombinant baculovirus infected cell nuclear extracts and 80-120 ng from HPV E2 baculovirus infected cell nuclear extracts were incubated in 500 μl NET-gel buffer (50 mM Tris-HCl pH7.5, 150 mM NaCl, 0.1% NP-40, 1 mM EDTA, 0.25% gelatin) at 4° C. for one hour. 1-2 μg anti-EE monoclonal antibody was added and incubated with shaking at 4° C. for one hour. Immune complexes were precipitated with protein-G agarose beads and washed twice for 30 minutes with ice cold NET-gel buffer. Precipitated proteins were detected by Western blot using appropriate primary antibodies and anti-rabbit IgG HRP or anti-mouse IgG HRP (Amersham). Membranes were blocked for one hour in TNET (10 mM Tris 7.5, 2.5 mM EDTA, 50 mM NaCl, 0.1% Tween-20) containing 4% (w/v) dry milk. Washes and antibody reactions were carried out in TNET, and proteins were visualized by chemiluminescence (Reneaissance ECL, NEN) and autoradiography. Bands were quantitated using the NIH image program.
Therefore, we reasoned that a peptide encompassing this domain of HPV16 E2 might inhibit interaction between HPV16 E1 and E2, thereby inhibiting HPV16 DNA replication (FIG. 5). In order to test this possibility, HPV16 E2 and epitope tagged full length HPV16 E1 (EE16-E1) proteins were expressed separately using baculovirus vectors. EE-E1 and associated E2 proteins were immunoprecipitated using an anti-EE epitope monoclonal antibody. Precipitated E2 was detected by Western blot using polyclonal antiserum raised to the DNA binding domain of HPV16 E2 (35). As shown in lane 2 of FIG. 6A, E2 co-immunoprecipitated with EE16-E1, but was not precipitated by the EE epitope antibody in the absence of EE16-E1 (lane 1). Peptides encompassing HPV16 E2 amino acids 29-51 (E2N-WP23) or residues 33-47 (E2N-WP15) of HPV16 E2 were then tested for inhibition of E1-E2 interaction. These peptide sequences were derived from the sequence of HPV16 E2, and were based on an alignment of amino terminal residues that are conserved among the papillomavirus E2 proteins (FIG. 5). […] Both the HPV16 E2 protein itself and the E2 derived peptides act specifically in these assays, since the E39A replication defective HPV16 E2 mutant bound only slightly to EE16-E1 (lanes 14). […] These peptides are named E2N-MP23 and E2N-MP15, respectively (see FIG. 5). […] We have previously shown that a domain spanning amino acids 421-647 of the HPV16 E1 carboxy terminus is necessary and sufficient for E2 interaction (45).

[2] = target: T2, interaction between HPV11 E1 and HPV16 E2 (Human papillomavirus 11, UniProt P04014); test: In vitro HPV E1-E2 binding assay, HPV11 E1 and HPV16 E2
T2 construct: made in house; host or cells: Hi-Five insect cells infected with recombinant baculovirus (HPV-11 EE-E1 virus a gift from Louise Chow); nuclear extracts
T2 sequence (P04014 whole entry): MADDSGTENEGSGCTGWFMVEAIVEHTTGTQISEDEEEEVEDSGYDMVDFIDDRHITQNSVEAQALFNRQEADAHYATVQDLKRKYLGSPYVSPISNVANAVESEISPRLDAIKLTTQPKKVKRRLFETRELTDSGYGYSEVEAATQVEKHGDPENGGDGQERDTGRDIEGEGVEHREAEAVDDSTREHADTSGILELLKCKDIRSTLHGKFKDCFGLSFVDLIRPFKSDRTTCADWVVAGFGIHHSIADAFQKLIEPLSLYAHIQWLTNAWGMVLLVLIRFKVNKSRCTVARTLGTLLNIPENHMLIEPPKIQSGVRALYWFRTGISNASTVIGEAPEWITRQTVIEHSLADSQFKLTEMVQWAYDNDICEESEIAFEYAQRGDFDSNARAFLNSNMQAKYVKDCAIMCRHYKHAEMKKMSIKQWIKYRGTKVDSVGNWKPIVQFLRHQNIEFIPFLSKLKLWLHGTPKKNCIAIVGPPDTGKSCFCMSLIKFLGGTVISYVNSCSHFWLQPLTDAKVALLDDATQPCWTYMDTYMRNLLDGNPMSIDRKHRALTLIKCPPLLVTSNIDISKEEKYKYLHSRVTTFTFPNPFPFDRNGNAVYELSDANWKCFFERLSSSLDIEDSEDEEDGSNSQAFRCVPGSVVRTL
Protocol: as §1
(§2) Very little is known about the physical properties of domains within the papillomavirus E1 and E2 proteins that are involved in intermolecular recognition and association. […] The effect of the E2N-WP15 peptide on these interactions was also assessed. […]

[3] = target: T3, HPV11 E1/E2 interaction (Human papillomavirus 11, UniProt P04014); test: In vitro HPV E1-E2 binding assay, HPV11 E1 and HPV11 E2
T3 construct: made in house; host or cells: Hi-Five insect cells infected with recombinant baculoviruses (gift from Louise Chow); nuclear extracts
T3 sequence (P04014 whole entry): as above
Protocol: as §1, §2

[4] = tested on: in vitro HPV16 DNA replication; test: In vitro replication of HPV16 DNA (293 cell extract, EE-E1, HPV16 E2); assay type: biochemical; settings: 40 ng EE-E1 and 6 ng HPV16 E2, FIG. 7
Protocol: (§3) In vitro replication reactions. In vitro replication reactions were essentially as described by Kuo et al. (18) in 25 μl reactions at 37° C. for indicated times. Standard reactions were for 2 hours, and were terminated by addition of 200 μl stop solution (20 mM Tris-HCl pH 7.5, 10 mM EDTA, 0.1% SDS, and 20 μg/ml RNase A). After incubation at 37° C. for 15 minutes, proteinase K was added (200 μg/ml) and incubation was continued 30 minutes. Samples were extracted with 250 μl phenol/chloroform/isoamyl alcohol (25:24:1), ethanol precipitated, washed with 70% ethanol, dried, resuspended in 20-30μl TE, and analyzed on a 0.8% agarose gel (TAE). The agarose gel was dried onto Hybond N+ membrane (Amersham), and replicated DNA was visualized by autoradiography. Bands were quantitated by Phosphorimager analysis. Replication templates were pKS7838-7905 (nt7838-7905/1-130) containing the HPV16 replication origin, and pUC7874-99 containing the HPV11 origin of replication (nt7874-7933/1-99). pUC7874-99 was a generously provided by Dr. Louise Chow.
We sought to establish a system for the study of HPV16 DNA replication in vitro, and to determine whether specific interaction between HPV16 E1 and E2 was required for HPV16 DNA replication in this system. […] As has been documented for other papillomavirus E1 proteins, some replication was observed using relatively large amounts of E1 in the absence of E2 (lanes 2 through 7) (6, 16, 22, 33, 40, 48). […] Replication in this assay is ori-dependent, since the small amount of replication of the pKS plasmid lacking the HPV16 origin detected at high concentrations of EE-E1 (FIG. 3B, lanes 1-6) was not stimulated by E2 (FIG. 1B, lanes 7-12).
Since the E2N-WP23 and E2N-WP 15 peptides could inhibit interaction between […] E1 and E2, their ability to inhibit in vitro HPV16 DNA replication was also tested (FIGS. 7A and 7B).

[5] = tested on: HPV16 E2/HPV11 E1 dependent replication of the HPV11 origin; test: In vitro replication of the HPV11 origin with HPV11 E1 and HPV16 E2; assay type: biochemical
Protocol: as §3
The ability of the E2N-WP15 peptide to inhibit HPV11 E1 mediated replication in vitro was also tested. As shown in FIG. 7B (lanes 1-9), HPV11 E1 could cooperate with HPV16 E2 in supporting dose responsive in vitro replication of the HPV11 ori. […]

[6] = target: T4, epitope tagged full length HPV16 E1 (EE16-E1) (human papillomavirus type 16, UniProt P03114 1-649); test: co-immunoprecipitation with anti-EE antibody (data not shown); pair read as HPV16 E1 with HPV11 E2
T4 construct: range 1-649; also called EE-E1; HPV16 EE-E1
T4 sequence: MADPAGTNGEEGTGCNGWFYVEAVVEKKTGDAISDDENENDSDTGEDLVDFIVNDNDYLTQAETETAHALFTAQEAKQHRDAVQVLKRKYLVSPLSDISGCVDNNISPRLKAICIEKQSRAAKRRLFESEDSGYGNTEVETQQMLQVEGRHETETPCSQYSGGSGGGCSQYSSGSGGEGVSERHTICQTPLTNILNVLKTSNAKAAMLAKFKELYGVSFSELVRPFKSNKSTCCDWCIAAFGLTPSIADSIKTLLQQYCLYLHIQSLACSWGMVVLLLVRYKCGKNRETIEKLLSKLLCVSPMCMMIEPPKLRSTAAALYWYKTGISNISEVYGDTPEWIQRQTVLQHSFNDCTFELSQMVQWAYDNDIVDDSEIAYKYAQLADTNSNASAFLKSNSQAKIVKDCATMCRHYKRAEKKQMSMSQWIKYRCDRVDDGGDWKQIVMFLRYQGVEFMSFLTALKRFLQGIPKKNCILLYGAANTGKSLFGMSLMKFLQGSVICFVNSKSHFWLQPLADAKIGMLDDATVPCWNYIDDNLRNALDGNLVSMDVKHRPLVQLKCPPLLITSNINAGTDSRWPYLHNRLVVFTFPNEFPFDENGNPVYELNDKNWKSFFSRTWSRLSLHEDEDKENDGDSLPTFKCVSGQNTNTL

Molecule | effect on E1-E2 interaction of peptide added at 5 minutes ([1]; 50 μM final concentration, added 5 minutes after start of binding reaction, terminated at 60 minutes) | effect on E1-E2 interaction of peptide added at or after 10 minutes ([1]; 50 μM final concentration, added at or after 10 minutes) | inhibition of HPV16 E1-E2 interaction ([1]; increasing peptide concentrations, FIG. 6A) | mode of inhibition of E1-E2 interaction ([1]; inhibition plotted as a function of substrate concentration (data not shown)) | inhibition of interaction between HPV11 E1 and HPV16 E2 [2] | inhibition of HPV11 E1/E2 interaction [3] | inhibition of in vitro HPV16 DNA replication [4] | inhibition of HPV16 E2/HPV11 E1 dependent replication of the HPV11 origin [5] | binding result [6]
WKHMRLECAIYYKAR [E2N-WP15] | significant inhibition of subsequent E1-E2 interaction | only a minimal effect on the stability of this E1-E2 interaction | comparable inhibition of E1-E2 interaction | competitive inhibition | effectively inhibited | effectively inhibited | could effectively inhibit in vitro replication | approximately the same effectiveness as its inhibition of HPV16 E1/E2 mediated in vitro replication | 
HPV11 E2 (other) MEAIAKRLDACQDQLLELYEENSIDIHKHIMHWKCIRLESVLLHKAKQMGLSHIGLQVVPPLTVSETKGHNAIEMQMHLESLAKTQYGVEPWTLQDTSYEMWLTPPKRCFKKQGNTVEVKFDGCEDNVMEYVVWTHIYLQDNDSWVKVTSSVDAKGIYYTCGQFKTYYVNFNKEAQKYGSTNHWEVCYGSTVICSPASVSSTVREVSIAEPTTYTPAQTTAPTVSACTTEDGVSAPPRKRARGPSTNNTLCVANIRSVDSTINNIVTDNYNKHQRRNNCHSAATPIVQLQGDSNCLKCFRYRLNDKYKHLFELASSTWHWASPEAPHKNAIVTLTYSSEEQRQQFLNSVKIPPTIRHKVGFMSLHLL |  |  |  |  |  |  |  |  | no binding
